Where a SMILES comes first, the peptide text is derived from it. Bridges are numbered along the chain shown (N, C = ends). [ ]: non-standard residue; d: D form. pGlu = O=C1CC[C@@H](C(=O)O)N1; d(hCys) = N[C@H](CCS)C(=O)O; dNle = CCCC[C@@H](N)C(=O)O; dNva = CCC[C@@H](N)C(=O)O; hCys = N[C@@H](CCS)C(=O)O; Nle = CCCC[C@H](N)C(=O)O; dAbu = CC[C@@H](N)C(=O)O
Assay: Surrogate Activity-Based Plasma Stability Assay
Type: in vitro ADME
Settings: rat
Excerpt: Surrogate Activity-Based Plasma Stability Assay:
2) Calculate slope of value above and […]

Compared with `CCCC[C@@H](NC(=O)[C@@H]1CCCN1C(=O)[C@H](C)NC(=O)[C@H](CCCCN)NC(=O)[C@@H]1CSSC[C@H](NC(=O)[C@H](CCCNC(=N)N)NC(=O)[C@@H]2CCC(=O)N2)C(=O)N[C@@H](CCCNC(=N)N)C(=O)N[C@@H](CC(C)C)C(=O)N[C@@H](CO)C(=O)N1)C(=O)N[C@H](C)C(=O)N[C@H](Cc1ccccc1)C(=O)O` [Example 24, pE-R-C*-R-L-S-C*-K-A-P-(D-Nle)-a-f-OH] ([pGlu]RCRLSCKAP[dNle][dA][dF]-OH; disulfide 3-7), `CCCC[C@@H](NC(=O)[C@@H]1CCCN1C(=O)CNC(=O)[C@H](CCCCN)NC(=O)[C@@H]1CSSC[C@@H](NC(=O)[C@H](CCCNC(=N)N)NC(=O)[C@@H]2CCC(=O)N2)C(=O)N[C@@H](CCCNC(=N)N)C(=O)N[C@@H](CC(C)C)C(=O)N[C@@H](CO)C(=O)N1)C(=O)N[C@H](CC)C(=O)N[C@H](Cc1ccccc1)C(=O)O` [Example 27, pE-R-c*-R-L-S-C*-K-G-P-(D-Nle)-(D-abu)-f-OH] ([pGlu]R[dC]RLSCKGP[dNle][dAbu][dF]-OH; disulfide 3-7) is 21-fold lower in half-life: 28.3 h for the first, 1.37 h for the second.

Compared with `CCCC[C@@H](NC(=O)[C@@H]1CCCN1C(=O)CNC(=O)[C@H](CCCCN)NC(=O)[C@@H]1CSSC[C@H](NC(=O)[C@H](CCCNC(=N)N)NC(=O)[C@@H]2CCC(=O)N2)C(=O)N[C@@H](CCCNC(=N)N)C(=O)N[C@@H](CC(C)C)C(=O)N[C@@H](CO)C(=O)N1)C(N)=O` [Example 25, pE-R-C*-R-L-S-C*-K-G-P-(D-Nle)-NH2] ([pGlu]RCRLSCKGP[dNle]-NH2; disulfide 3-7), `CCCC[C@H](NC(=O)[C@@H]1CCCN1C(=O)CNC(=O)[C@H](CCCCN)NC(=O)[C@@H]1CSSC[C@H](NC(=O)[C@@H]2CCCN2C(=O)[C@H](CCCNC(=N)N)NC(=O)[C@@H]2CCC(=O)N2)C(=O)N[C@@H](CC(C)C)C(=O)N[C@@H](CO)C(=O)N1)C(=O)NCCc1ccccc1` [Example 31, pE-R-P-C*-L-S-C*-K-G-P-Nle-NH(Phenethyl)] is lower in half-life: > 16.7 h for the first, 0.718 h for the second.

First: CC(C)C[C@@H]1NC(=O)[C@H](CCCNC(=N)N)NC(=O)[C@@H](NC(=O)[C@H](CCCNC(=N)N)NC(=O)[C@@H]2CCC(=O)N2)CSSCC[C@H](C(=O)N[C@@H](CCCCN)C(=O)NCC(=O)N2CCC[C@H]2C(=O)N[C@H](Cc2ccccc2)C(=O)N[C@H](C)C(=O)N[C@H](Cc2ccccc2)C(=O)O)NC(=O)[C@H](CO)NC1=O [Example 26, pE-R-C*-R-L-S-(D-hC)*-K-G-P-f-a-f-OH] ([pGlu]RCRLS[d(hCys)]KGP[dF][dA][dF]-OH; disulfide 3-7)
Second: CCCC[C@@H](NC(=O)[C@@H]1CCCN1C(=O)CNC(=O)[C@H](CCCCN)NC(=O)[C@@H]1CSSC[C@H](NC(=O)[C@@H]2CCCN2C(=O)[C@H](CCCNC(=N)N)NC(=O)[C@@H]2CCC(=O)N2)C(=O)N[C@@H](CC(C)C)C(=O)N[C@@H](CO)C(=O)N1)C(=O)N[C@H](C)C(=O)N[C@H](Cc1ccccc1)C(=O)O [Example 33, pE-R-P-C*-L-S-C*-K-G-P-(D-Nle)-a-f-OH] ([pGlu]RPCLSCKGP[dNle][dA][dF]-OH; disulfide 4-7)
The half-life of the first is lower: 0.867 h for the first, > 16.7 h for the second.

First: CCCC[C@H](NC(=O)[C@@H]1CCCN1C(=O)CNC(=O)[C@H](CCCCN)NC(=O)[C@@H]1CSSC[C@H](NC(=O)[C@@H]2CCCN2C(=O)[C@H](CCCNC(=N)N)NC(=O)[C@@H]2CCC(=O)N2)C(=O)N[C@@H](CC(C)C)C(=O)N[C@@H](CO)C(=O)N1)C(=O)N1CCC[C@H]1C(=O)N[C@@H](Cc1ccccc1)C(=O)O [Example 28, pE-R-P-C*-L-S-C*-K-G-P-Nle-P-F-OH] ([pGlu]RPCLSCKGP[Nle]PF-OH; disulfide 4-7)
Second: CCCC[C@H](NC(=O)[C@@H]1CCCN1C(=O)CNC(=O)[C@H](CCCCN)NC(=O)[C@@H]1CSSC[C@H](NC(=O)[C@@H]2CCCN2C(=O)[C@H](CCCNC(=N)N)NC(=O)[C@@H]2CCC(=O)N2)C(=O)N[C@@H](CC(C)C)C(=O)N[C@@H](CO)C(=O)N1)C(=O)N1CCC[C@H]1C(=O)NCCc1ccccc1 [Example 30, pE-R-P-C*-L-S-C*-K-G-P-Nle-P-NH(Phenethyl)]
The half-life of the first is 51-fold lower: 0.217 h for the first, 11 h for the second.

Going from `CCCC[C@@H](NC(=O)[C@@H]1CCCN1C(=O)CNC(=O)[C@H](CCCCN)NC(=O)[C@@H]1CSSC[C@H](NC(=O)[C@@H]2CCCN2C(=O)[C@H](CCCNC(=N)N)NC(=O)[C@@H]2CCC(=O)N2)C(=O)N[C@@H](CC(C)C)C(=O)N[C@@H](CO)C(=O)N1)C(=O)N[C@H](Cc1ccccc1)C(=O)O` [Example 34, pE-R-P-C*-L-S-C*-K-G-P-(D-Nle)-f-OH] ([pGlu]RPCLSCKGP[dNle][dF]-OH; disulfide 4-7) to `CCCC[C@@H](NC(=O)[C@@H]1CCCN1C(=O)CNC(=O)[C@H](CCCCN)NC(=O)[C@@H]1CCSSCC[C@@H](NC(=O)[C@@H]2CCCN2C(=O)[C@H](CCCNC(=N)N)NC(=O)[C@@H]2CCC(=O)N2)C(=O)N[C@@H](CC(C)C)C(=O)N[C@@H](CO)C(=O)N1)C(=O)N[C@H](CCC)C(=O)N[C@H](Cc1ccccc1)C(=O)O` [Example 38, pE-R-P-(D-hC)*-L-S-hC*-K-G-P-(D-Nle)-(D-Nva)-f-OH] ([pGlu]RP[d(hCys)]LS[hCys]KGP[dNle][dNva][dF]-OH; disulfide 4-7), the half-life falls from > 16.7 h to 0.683 h.

For `CCCC[C@@H](NC(=O)[C@@H]1CCCN1C(=O)CNC(=O)[C@H](CCCCN)NC(=O)[C@H]1CCSSC[C@@H](NC(=O)[C@@H]2CCCN2C(=O)[C@H](CCCNC(=N)N)NC(=O)[C@@H]2CCC(=O)N2)C(=O)N[C@@H](CC(C)C)C(=O)N[C@@H](CO)C(=O)N1)C(=O)N[C@H](C)C(=O)N[C@H](Cc1ccc(O)cc1)C(=O)O` [Example 37, pE-R-P-c*-L-S-(D-hC)*-K-G-P-(D-Nle)-a-y-OH] ([pGlu]RP[dC]LS[d(hCys)]KGP[dNle][dA][dY]-OH; disulfide 4-7), the half-life was 0.783 h.

Same assay, conditions: rat, read-out: Surrogate activity-based Plasma stability t½

In the case of `C=CCCCCCCCCCC(CCCCCCCCCCC(=O)O)(C(=O)O)C(=O)NCCOCCOCCOCCOCCOCCOCCOCCOCCOCCOCCOCCOCCOCCOCCOCCOCCOCCOCCOCCOCCOCCOCCOCCn1nnc2c1CC[C@H]1[C@@H](CC2)[C@H]1COC(=O)NCCCC[C@H](NC(=O)[C@@H]1CSSC[C@H](NC(=O)[C@@H]2CCCN2C(=O)[C@H](CCCNC(=N)N)NC(=O)[C@@H]2CCC(=O)N2)C(=O)N[C@@H](CC(C)C)C(=O)N[C@@H](CO)C(=O)N1)C(=O)NCC(=O)N1CCC[C@H]1C(=O)N[C@H](CCCC)C(=O)NCCc1ccccc1` (stereo partly drawn) [Example 40], the half-life was > 16.7 h.
